The values that follow come from US20030206858A1, “Metal complex-containing pharmaceutical agents” (Schering AG, priority 1986, published 2003).

The data set in a line: 153Gd remaining in the rat 7 days after i.v. injection of GdDTPA/dimeglumine. The class given is in vivo. Particulars: rats, one week after i.v. injection of GdDTPA; 10% calcium trisodium DTPA added to the contrast medium, versus no additive.

Regarding `O=C([O-])CN(CCN(CC(=O)[O-])CC(=O)[O-])CCN(CC(=O)[O-])CC(=O)[O-].[Ca+2].[Na+].[Na+].[Na+]` [calcium trisodium DTPA, Calcium-trisodium salt of DTPA], the “reduction of the gadolinium concentration in the bones” value is “about 45%” and the “reduction of the portion of gadolinium remaining in the bodies” value was “greater than 30%”.
